Test results from patent publication US20230190707A1, “COMPOSITIONS AND METHODS FOR ENHANCING CANCER IMMUNOTHERAPY” (FRED HUTCHINSON CANCER CENTER, priority 2020, published 2023).
Read-outs that look alike come from different tables or passages of the source.

How the values were obtained:
[1] = tested on: OT-1 transgenic T cells against ovalbumin (OVA)-expressing B16-F10 cells; assay: OT-1 cytotoxicity assay; assay type: cell-based, mouse; conditions: 18 hours; minimal impairment at doses less than 4 μM
Method: Bulk splenocytes from OT-1 animals were cultured for three days with 100 U/mL murine IL-2 and 100 μg/mL SIINFEKL (SEQ ID NO:1) peptide to activate CD8^+ T cells. Cultures were subsequently washed thoroughly to remove ova peptide and rested for at least 24 hours prior to use. OT-1 cells were passaged in T cell media with 50 U/mL IL-2 for no more than seven days from animal sacrifice prior to use. For the cytotoxicity assay, tumor cells alone or OT-1+tumor cells (1:1 ratio) were incubated in T cell media for 18 hours under standard conditions with the indicated concentrations of splicing drugs and analyzed by flow cytometry to quantify killing. OT-1 cells and other hematopoietic cells were excluded with the use of CD45, CD3, and CD8 staining. Tumor cell viability was measured using DAPI.

[2] = tested on: bone marrow hematopoietic stem and progenitor cells; assay: M3434 methylcellulose colony assay; assay type: cell-based, mouse
Method: 25,000 red blood cell-lysed bone marrow mononuclear cells from C57BL/6 mice were plated in duplicates or triplicates in each well of a non-tissue-culture treated 6 well plate with M3434 methylcellulose media in the presence of splicing drugs at the indicated concentrations as per manufacturer's instructions (StemCell Technologies, Cat. 03434) and incubated for seven days prior to quantification of colonies by manual microscopy.

[3] = tested on: B16-F10, MB49, MC38, and CT26; assay: RNA-seq splicing analysis, mouse tumor cell lines; assay type: cell-based; conditions: doses that did not affect tumor cell growth in vitro
Method: Unless otherwise specified, cell lines were treated with splicing inhibitors at the indicated concentrations for 96 hours in vitro, harvested and washed three times with PBS in excess to remove all drug, and then used for downstream analyses and/or subsequent studies, including phenotyping, RNA-seq analyses, continued growth in vitro, or tumor challenge in vivo into syngeneic animals.
(§1) Bulk lung and colon were homogenized using a Qiagen TissueRuptor. For all tissues and cell types, RNA was extracted using an RNeasy kit (Qiagen, Frederick, Md.) and quantified using a NanoDrop 8000 (ThermoFisher Scientific). A minimum of 500 ng of high-quality RNA (as determined by Agilent Bioanalyzer) per sample or replicate was used for library preparation. Poly(A)-selected, strand-specific (dUTP method) Illumina libraries were prepared with a modified TruSeq protocol and sequenced on the Illumina HiSeq 2000 (˜100M 2×101 bp paired-end reads per sample or replicate).
RNA-seq analysis was performed as previously described (Dvinge, H., et al. (2014). Sample processing obscures cancer-specific alterations in leukemic transcriptomes. Proc Natl Acad Sci USA 111, 16802-16807, incorporated herein by reference in its entirety). […] Aligned reads from these two mapping steps were merged to generate final BAM files for all subsequent analyses. […]

[4] = tested on: 501-MEL, A375, and SK-MEL-239; assay: RNA-seq splicing analysis, human tumor cell lines; assay type: cell-based; conditions: identical treatment
Method: as §1
RNA-seq analysis was performed as previously described (Dvinge, H., et al. (2014). Sample processing obscures cancer-specific alterations in leukemic transcriptomes. Proc Natl Acad Sci USA 111, 16802-16807, incorporated herein by reference in its entirety). […] Aligned reads from these two mapping steps were merged to generate final BAM files for all subsequent analyses.
MISO v2.0 was used to quantify all expression of isoforms arising from exon skipping (cassette exons), competing 5′ splice site selection, competing 3′ splice site selection, and annotated intron retention. […]

**Q.** Which results are given for `CC(C)Oc1ccc(-c2c[nH]cc2CN(C)CCN)cc1` [MS-023]?
**A.** in vitro cytotoxicity of primed OT-1 T cells against OVA-expressing B16-F10 cells [1]: minimally impaired; hematopoiesis (colony formation) ([2]; micromolar doses, pladienolide B at nanomolar concentrations): intact; splicing changes in mouse tumor cell lines [3]: dramatic changes in both alternative and constitutive splicing; splicing changes in human cancer cells [4]: stereotyped and pervasive splicing changes

**Q.** How did the “in vitro cytotoxicity of primed OT-1 T cells against OVA-expressing B16-F10 cells” value [1] turn out when `NS(=O)(=O)c1ccc(S(=O)(=O)Nc2cccc3c(Cl)c[nH]c23)cc1` [indisulam] was run?
**A.** minimally impaired

**Q.** What about the “hematopoiesis (colony formation)” value [2] of the same compound?
**A.** intact

**Q.** What about the “splicing changes in mouse tumor cell lines” value [3] of the same compound?
**A.** dramatic changes in both alternative and constitutive splicing

**Q.** And the “splicing changes in human cancer cells” value [4]?
**A.** stereotyped and pervasive splicing changes
